Source: patent US7435837B2, “Dihydrobenzofuranyl alkanamine derivatives and methods for using same” (Wyeth, priority 2003, dated 2008)

Legend:
[1] = target: T1, human 5-hydroxytryptamine-2C (h5-HT2C) receptor (Homo sapiens, UniProt P28335); experiment: [125I]DOI binding to membranes of CHO cells expressing the human 5-HT2C receptor; details: [125I]DOI radioligand, CHO cell membranes, room temperature 60 min; read-out: 5-HT2C Affinity Ki
T1 construct: expressed in transfected cells; host or cells: CHO (Chinese Hamster Ovary) cells; membranes
T1 sequence (P28335 33-458): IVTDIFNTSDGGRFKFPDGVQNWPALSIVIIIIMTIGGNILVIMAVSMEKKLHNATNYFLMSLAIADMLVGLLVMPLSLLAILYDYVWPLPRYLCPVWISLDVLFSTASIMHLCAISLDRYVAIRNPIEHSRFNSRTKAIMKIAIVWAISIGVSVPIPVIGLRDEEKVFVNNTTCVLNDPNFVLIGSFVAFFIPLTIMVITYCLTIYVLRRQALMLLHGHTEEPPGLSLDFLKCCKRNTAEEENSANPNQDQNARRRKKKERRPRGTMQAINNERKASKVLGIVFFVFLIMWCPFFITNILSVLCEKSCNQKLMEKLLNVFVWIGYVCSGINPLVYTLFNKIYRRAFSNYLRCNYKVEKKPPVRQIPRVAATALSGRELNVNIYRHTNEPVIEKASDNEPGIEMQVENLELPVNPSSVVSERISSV

human 5-HT2C receptor = target: T2, human 5-HT2C receptor (Homo sapiens, UniProt P28335); experiment: 5-HT2C receptor-stimulated calcium mobilization (FLIPR) in CHO cells; format: cell-based; details: for Emax: CHO, read-out: 5-HT2C Function Emax (%); for EC50: calcium mobilization, CHO cells stably expressing human 5-HT2C, read-out: 5-HT2C Function EC50;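 on all read-outs here: Fluo-3-AM fluorescence read on FLIPR every 1 s, agonist added after 10 baseline reads, response taken as peak minus lowest raw fluorescence count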
T2 sequence (P28335 33-458): T1 sequence (P28335 33-458)

[2] = percentage of the response observed with a maximally effective concentration of 5-HT

Row | Structure (SMILES) | Ki [1] [nM] | Emax (human 5-HT2C receptor; [2]) [%] | EC50 (human 5-HT2C receptor) [nM] | 5-HT2C Function Emax (%) (human 5-HT2C receptor; [2])
1 | NCC1Cc2c(cccc2-c2ccccc2)O1 (single isomer, unassigned; (-)) [Example 3, (−)-1-(4-phenyl-2,3-dihydro-1-benzofuran-2-yl)methanamine] | 204 |  |  | 
2 | NCC1Cc2cccc(Nc3ccc(F)cc3)c2O1 (racemic) [Example 178, (±)-N-[2-(aminomethyl)-2,3-dihydro-1-benzofuran-7-yl]-N-(4-fluorophenyl)amine] | 310 |  |  | 
3 | NCC1Cc2ccc(Cl)c(-c3ccccc3Cl)c2O1 (racemic) [Example 400, (±)-{[6-chloro-7-(2-chlorophenyl)-2,3-dihydro-1-benzofuran-2-yl]methyl}amine] | 0.5 |  |  | 
4 | Cc1ccc(Nc2cccc3c2OC(CN)C3)cc1C (racemic) [Example 181, (±)-N-[2-(aminomethyl)-2,3-dihydro-1-benzofuran-7-yl]-N-(3,4-dimethylphenyl)amine] | 146 |  |  | 
5 | CNCC1Cc2cc(-c3ccccc3Cl)cc(F)c2O1 (racemic) [Example 529, (±)-{[7-fluoro-5-(2-chlorophenyl)-2,3-dihydro-1-benzofuran-2-yl]methyl}methylamine] | 616 |  |  | 
6 | COc1ccc(Nc2cccc3c2OC(CN)C3)cc1 (racemic) [Example 176, (±)-N-[2-(aminomethyl)-2,3-dihydro-1-benzofuran-7-yl]-N-(4-methoxyphenyl)amine] | 488 |  |  | 
7 | NCC1Cc2cc(-c3ccccc3)cc(-c3ccc(F)cc3F)c2O1 (racemic) [Example 354, (±)-{[7-(2,4-difluorophenyl)-5-phenyl-2,3-dihydro-1-benzofuran-2-yl]methyl}amine] | 610 |  |  | 
8 | NCC1Cc2cccc(-c3ccc4ccccc4c3)c2O1 (racemic) [Example 39, (±)-1-[7-(2-naphthyl)-2,3-dihydro-1-benzofuran-2-yl]methanamine] | 43 |  |  | 
9 | CNCC1Cc2cccc(-c3cc(F)ccc3F)c2O1 (racemic) [Example 428, (±)-[(N-methyl-1-[7-(2,5-difluorophenyl)-2,3-dihydro-1-benzofuran-2-yl]methanamine] |  | 80 | 69 | 
10 | CNCC1Cc2cccc(-c3ccc(F)cc3F)c2O1 (racemic) [Example 424, (±)-[(N-methyl-1-[7-(2,4-difluorophenyl)-2,3-dihydro-1-benzofuran-2-yl]methanamine] |  | 90 | 49 | 
11 | CNCC1Cc2cc(F)cc(-c3c(Cl)cccc3Cl)c2O1 (single isomer, unassigned; (+)) [Example 543, (+){[7-(2,6-dichlorophenyl)-5-fluoro-2,3-dihydro-1-benzofuran-2-yl]methyl}methylamine] |  |  | 0.2 | 100
12 | CCNCC1Cc2cc(F)cc(-c3c(Cl)cccc3Cl)c2O1 (racemic) [Example 234, (±)-N-{[7-(2,6-dichlorophenyl)-5-fluoro-2,3-dihydro-1-benzofuran-2-yl]methyl}ethanamine] |  | 90 | 11 | 
13 | Cc1cccc(C)c1-c1cc(Cl)cc2c1OC(CNC(C)C)C2 (racemic) [Example 272, (±)-N-{[5-chloro-7-(2,6-dimethylphenyl)-2,3-dihydro-1-benzofuran-2-yl]methyl}propan-2-amine] |  | 70 | 845 | 
14 | CNCC1Cc2cc(Cl)cc(-c3cccc(C)c3C)c2O1 (racemic) [Example 465, (±)-{[5-chloro-7-(2,3-dimethylphenyl)-2,3-dihydro-1-benzofuran-2-yl]methyl}methylamine] |  | 60 | 496 | 
15 | CNCC1Cc2cc(C)cc(-c3cccc(OC)c3OC)c2O1 (single isomer, unassigned; (+)) [Example 566, (+)-{[7-(2,3-dimethoxyphenyl)-5-methyl-2,3-dihydro-1-benzofuran-2-yl]methyl}methylamine] |  | 70 | 3 | 
16 | Fc1cc2c(c(-c3c(Cl)cccc3Cl)c1)OC(CN1CCOCC1)C2 (racemic) [Example 239, (±)-1-{[7-(2,6-dichlorophenyl)-5-fluoro-2,3-dihydro-1-benzofuran-2-yl]methyl}morpholine] |  | 40 | 1430 | 
